# Earlier results in the CATMoS acute toxicity set (Mansouri et al. 2021).
# Values joined by “and” are separate entries in the source; they are usually repeats but may differ in a detail not shown here. Equal values may be shown once.
# Assay: rat acute oral toxicity
# Details: in vivo
row,SMILES,LD50
1,COc1ccc2c3c1OC1C(O)CCC4C(C2)N(C)CCC341 (stereo not given),359 mg/kg
2,O=S1(=O)CCN(c2ccccc2)CC1,800 mg/kg
3,CC(=O)OC1CC2(O)C(CCC3(C)C(c4ccc(=O)oc4)CCC32O)C2(C)CCC(O)C=C12 (stereo not given),4.2 mg/kg
4,Nc1ccc2c(c1)[nH]c1ccccc12,964 mg/kg
5,Cc1cc(=O)c2c(C)ccc(C)c2o1,2960 mg/kg
6,CCCC(CCC)C(C)NC(=O)CC (stereo not given),700 mg/kg
7,CN(C)C(=N)NC#N,3840 mg/kg
8,CCOc1ccccc1N1CCN(CCC=Cc2ccc3[nH]c(=O)ccc3c2)CC1,500 mg/kg
9,CCCOP(=O)(OC=C(Cl)Cl)OCCCl (stereo not given),25 mg/kg
10,CCOc1ccc([N+](=O)[O-])cc1CNCCO,25 mg/kg
11,O=c1[nH]c2ccccc2n1CCCN1CCC(n2c(=O)[nH]c3cc(Cl)ccc32)CC1,5240 mg/kg
12,CS(=O)(=O)O,6170 mg/kg
13,Nc1nc(N)nc(NC2CC2)n1,3390 mg/kg
14,CCCCOC(=O)c1c[n+](C)c2n(c1=O)C(C)CCC2 (stereo not given),1370 mg/kg
15,Cc1ccn(C(N)=O)n1,830 mg/kg and 1100 mg/kg
16,OCCN1CCCN(CCCN2c3ccccc3C=Cc3ccccc32)CC1,2410 mg/kg
17,CN(C)CC[C@@H](c1ccc(Br)cc1)c1ccccn1,191 mg/kg
18,FC(F)OC(F)(F)C(F)Cl (stereo not given),5450 mg/kg
19,O=C1CCCCCCCCCCCN1,2330 mg/kg
20,S=C1NCNCN1,4.6 mg/kg
21,C[N+]1(C)CCc2cc(Cl)ccc21,447 mg/kg
22,O=C=NCCCCCCNC(=O)N(CCCCCCN=C=O)C(=O)NCCCCCCN=C=O,19800 mg/kg
23,CCOC(=O)CC(=O)NP(=O)(OC)SC (stereo not given),125 mg/kg
24,C[Si](C)(C)CCC(=O)O,3000 mg/kg
25,CC(CN(C)C)CN1c2ccccc2OCOc2ccc(Cl)cc21 (stereo not given),600 mg/kg
26,Cc1ccc(CN(C)N=O)cc1,400 mg/kg

row,SMILES,LD50
1,O=c1ncc2[nH]c(=O)[nH]c2[nH]1,1820 mg/kg
2,CCC1CCC(C)NC1 (stereo not given),540 mg/kg
3,CCCCC(CC)COC(=O)c1ccccc1C(=O)OCC(CC)CCCC (stereo not given),30000 mg/kg
4,CC(=O)c1ccc(C)cc1,1400 mg/kg
5,O=C(O)Cc1c(-c2ccccc2)c(-c2ccccc2)nn1-c1ccccc1,13 mg/kg
6,CCCCC(=O)OC1CCC(N2CCCCC2)CC1 (stereo not given),1510 mg/kg
7,O=C(O)c1cc(O)c(O)c(OC(=O)c2cc(O)c(O)c(O)c2)c1,2260 mg/kg
8,CN(C/C=C/C#CC(C)(C)C)Cc1cccc2ccccc12,4000 mg/kg
9,C#CCOC(=O)/C=C(C)/C=C/CC(C)CCCC(C)C (stereo not given),4900 mg/kg
10,C[C@H](N)[C@H](O)c1ccccc1,1540 mg/kg
11,CCCCNC(=O)NS(=O)(=O)c1ccc(N)cc1,4400 mg/kg
12,O=C(Cl)c1cc(Cl)cc(Cl)c1,794 mg/kg
13,CCCCOCCOCCOCCOCCOCCCC,6500 mg/kg
14,CCCCS,1500 mg/kg
15,CCO[Si](C)(C)OCC,9280 mg/kg
16,COc1ccc(CC2CNC(=O)N2)cc1OC1CCCC1 (stereo not given),600 mg/kg
17,FC1(F)CC(C2CC3(Cl)C(Cl)=C(Cl)C2(Cl)C3(Cl)Cl)C1(F)F (stereo not given),550 mg/kg
18,CCCCc1c(OC(=O)c2cccs2)n(-c2ccccc2)n(-c2ccccc2)c1=O,1180 mg/kg
19,COc1cc(C)nc(-n2nc(C)cc2OC)n1,445 mg/kg
20,CCOP(=O)(OC=CCl)OCC,7 mg/kg
21,O=c1ccc(=O)[nH][nH]1,10800 mg/kg
22,COP(=S)(OC)OC1CCCCC1,2900 mg/kg
23,SCCc1cnccn1,158 mg/kg
24,COC(C)CC(CC(OC)OC)OC (stereo not given),4090 mg/kg
25,C[N+](C)(C)CCOP(=O)(O)OP(=O)(O)OC[C@H]1O[C@@H](n2ccc(N)nc2=O)[C@H](O)[C@@H]1O,18500 mg/kg
26,CC[N+](CC)(CC)CCOC(=O)C(C1CCCC1)C1CCCC1,780 mg/kg

row,SMILES,LD50
1,CN1CCC(OC2c3ccccc3CCc3ccccc32)CC1,1500 mg/kg
2,CCCSP(=O)(OCC)Oc1ccc(Cl)cc1Cl (stereo not given),320 mg/kg
3,CNC(=O)Oc1cc(C)c(C)c(C)c1,178 mg/kg
4,CCOc1cc(C=O)ccc1O,1590 mg/kg
5,CNC(=O)Oc1cc(C(C)C)ccc1C,250 mg/kg
6,CCCCCCCCCc1ccc(OCCO)cc1,2100 mg/kg
7,CCN(CC)CCN(C)n1cc(-c2ccccc2)c2ccccc21,650 mg/kg
8,Oc1c(I)cc(I)c(O)c1I,8200 mg/kg
9,CN(Cc1cc(Br)cc(Br)c1N)C1CCCCC1,6000 mg/kg
10,CC(N)CNCCCO (stereo not given),5660 mg/kg
11,CN(CC#N)N=O,45 mg/kg
12,C=C(C)C(=O)OCCO,5620 mg/kg
13,CCCCCCCl,7000 mg/kg
14,CCOC(=O)C1=C(COCCN)NC(C)=C(C(=O)OC)C1c1ccccc1Cl (stereo not given),393 mg/kg
15,COP(=S)(OC)SCSc1ccccc1Cl,13 mg/kg
16,O=C(Nc1cccc(Cl)c1)OCC#CCOC(=O)Nc1cccc(Cl)c1,2040 mg/kg
17,CCCOc1cc(C=CC(=S)OCC)ccc1OC,970 mg/kg
18,CCCCCC(C)NC (stereo not given),320 mg/kg
19,O=C(c1ccccc1)c1ccc(O)cc1,12100 mg/kg
20,O=C(O)CCCN1C(=O)c2cccc3cccc(c23)C1=O,4000 mg/kg
21,CCCCOc1c(Cl)c(Cl)c(Cl)c(Cl)c1Cl,600 mg/kg
22,NCC(=O)O,7930 mg/kg and 3340 mg/kg
23,CCC1=CSC(S)N1 (stereo not given),35 mg/kg
24,N#CCCOCCCCOCCC#N,4000 mg/kg
25,COC(=O)C(Cl)Cc1ccc(Cl)cc1 (stereo not given),1070 mg/kg
26,O=C(NC(O)C(Cl)(Cl)Cl)NC(O)C(Cl)(Cl)Cl (stereo not given),6400 mg/kg

row,SMILES,LD50
1,COc1cccc(N)c1,526 mg/kg
2,CCCOC(=O)C1c2cc3c(cc2CC(C)C1C(=O)OCCC)OCO3 (stereo not given),1500 mg/kg
3,Fc1cc(F)c2nc(C(F)(F)F)[nH]c2c1F,2.29 mg/kg
4,C=CCn1ccc(=O)c(O)c1C,800 mg/kg
5,[O-][N+](=Nc1ccccc1)c1ccccc1,620 mg/kg
6,CN(N=O)c1ccccc1,225 mg/kg
7,CC(C)OC(=O)OOC(=O)OC(C)C,2140 mg/kg
8,CC(=O)Nc1c(I)c(C(=O)O)c(I)c(N(C)C(C)=O)c1I,38100 mg/kg
9,CC(O)c1cccc(N)c1 (stereo not given),3100 mg/kg
10,Cc1ccc(OCC(=O)N[C@@H]2C(=O)N3[C@@H]2SC(C)(C)[C@@H]3C(=O)O)cc1Cl,2250 mg/kg
11,Oc1ccc(C(O)CCNCCCSc2ccccc2)cc1 (stereo not given),650 mg/kg
12,CC(C)=CC1C(C(=O)O)C1(C)C (stereo not given),2500 mg/kg
13,CCCc1ccc(C)cc1O,730 mg/kg
14,CCCNNc1ccccc1,13 mg/kg
15,CC(Cl)C(=O)O (stereo not given),800 mg/kg
16,COc1ccc(C(=O)CCC(=O)O)c2ccccc12,1800 mg/kg
17,CN(C)P(=O)(OC=C(Cl)Cl)c1ccc(Cl)cc1 (stereo not given),500 mg/kg
18,c1ccc(N(c2ccccc2)c2ccccc2)cc1,3200 mg/kg
19,OC1(c2ccccc2)c2ccccc2C2=NCCN21 (stereo not given),300 mg/kg
20,COC(=O)c1cccc(C(=O)OC)c1,4390 mg/kg
21,Cc1cc(O)cc(C)c1Cl,3830 mg/kg
22,CC(C)CC(O)CC(CC(C)C)CC(C)C (stereo not given),16300 mg/kg
23,CCCCC(O)c1ccccc1 (stereo not given),5430 mg/kg
24,Fc1cc(F)c2nc(C(F)(F)F)[nH]c2c1,2.49 mg/kg
25,NC1=NCC2c3ccccc3Cc3ccccc3N12 (stereo not given),192 mg/kg
26,OC[P+](CO)(CO)CO,232 mg/kg

row,SMILES,LD50
1,COc1ccc(C=CC(=O)OCCC(C)C)cc1,9600 mg/kg
2,COc1ccc([N+](=O)[O-])cc1,2300 mg/kg
3,CCc1cnc(C)cn1,900 mg/kg
4,CCCCCCOCCOC(=O)CCCCC(=O)OCCOCCCCCC,4290 mg/kg
5,Nc1ccc(N)cc1,80 mg/kg and 147 mg/kg
6,CNc1c2c(nn1C)CCCC2,1850 mg/kg
7,Cc1c(-c2ccccc2)oc2c(C(=O)OC(C)(C)CN3CCCCC3)cccc2c1=O,1980 mg/kg
8,CCOC(=O)C(C)(C)Oc1ccc(Cl)cc1,940 mg/kg
9,CCOC(C1=NCC(CC)(CC)CN1)c1ccc(Cl)cc1 (stereo not given),375 mg/kg
10,CN(C)CCC1Oc2ccccc2Nc2ccccc21 (stereo not given),1400 mg/kg
11,CC(c1ccccc1)N(C)C (stereo not given),420 mg/kg
12,COc1ccc([N+](=O)[O-])cc1CNCCCl,28 mg/kg
13,COc1ccc(C2Sc3ccccc3N(CCN(C)C)C(=O)C2OC(C)=O)cc1 (stereo not given),560 mg/kg
14,CC(C)CC(C)CC(O)CC(C)C (stereo not given),17000 mg/kg
15,C1CN1c1nc(N2CC2)nc(N2CC2)n1,13 mg/kg
16,COC(CC(C)=O)OC,6200 mg/kg
17,C=S,365 mg/kg
18,CC1(C)[C@@H](OC(=O)CCC(=O)O)CC[C@]2(C)[C@H]3C(=O)C=C4[C@@H]5C[C@@](C)(C(=O)O)CC[C@]5(C)CC[C@@]4(C)[C@]3(C)CC[C@@H]12,2450 mg/kg
19,C[N+]1(CCN(C2CCCCC2)C2CCCCC2)CCCCC1,650 mg/kg
20,CC1Cc2cc(C(=O)CCc3ccccc3)ccc2O1 (stereo not given),2150 mg/kg
21,CCCCCCCOCCOCCO,2940 mg/kg
22,CN1CN(CCO)CSC1=S,1000 mg/kg
23,Clc1ccccc1CN1CCc2sccc2C1,1780 mg/kg
24,CCOC(=S)C=Cc1ccc([N+](=O)[O-])cc1,970 mg/kg
25,CCCN(CCC)c1c([N+](=O)[O-])cc(C(F)(F)F)cc1[N+](=O)[O-],1930 mg/kg
26,O=C(O)Cc1ccc(C2CCCCC2)c(Cl)c1,83 mg/kg

row,SMILES,LD50
1,CCCC(N)(CCC)CCC,135 mg/kg
2,CC(C(C)(C)C)C(C)(C)SSSC(C)(C)C(C)C(C)(C)C (stereo not given),19600 mg/kg
3,COc1ccc(NC(=O)CC(C)=O)cc1,1700 mg/kg
4,O=COCc1ccccc1,1400 mg/kg
5,CCC(C)(C)/N=C(\NC#N)Nc1cccnc1,14 mg/kg
6,C=COCCOCCOC=C,3730 mg/kg
7,CCCCCCCNC(=O)Oc1ccc2c(c1)C1(C)CCN(C)C1N2C (stereo not given),25.1 mg/kg
8,Cc1cccc(N2CCN(CC=Cc3ccc4c(c3)CCC(=O)N4)CC2)c1,500 mg/kg
9,COc1cc(OC)cc(OCC(O)CO)c1 (stereo not given),2100 mg/kg
10,CC1(C)C(C=NOCc2ccco2)C1C(=O)OC(C#N)c1cccc(Oc2ccccc2)c1 (stereo not given),91 mg/kg
11,CC(C)CCCC1CCC(C)(C(=O)NCC(=O)O)CC1 (stereo not given),10300 mg/kg
12,CN1CCC(n2[nH]c(-c3ccccc3)c(Cc3ccccc3)c2=O)CC1,2700 mg/kg
13,CCCC(C)C(c1ccc(O)cc1)C(C)C (stereo not given),1900 mg/kg
14,Nc1ncnc2nccnc12,745 mg/kg
15,CCOP(=S)(OCC)Oc1cc(C)c(SC)c(C)c1,375 mg/kg
16,CC(C)C(Br)C(=O)OC(C)C(Cl)(Cl)Cl (stereo not given),1200 mg/kg
17,CCCCNC(C)c1ccccc1 (stereo not given),360 mg/kg
18,CC(C)CCN(C)C,225 mg/kg
19,CCCCNC(=S)Nc1ccccc1,150 mg/kg
20,CCOP(=O)(OCC)Sc1ccc([N+](=O)[O-])cc1,4.41 mg/kg
21,Cc1ncc2coc(OCCO)c2c1O,2200 mg/kg
22,CN(C)CCCN1C(=O)c2cc([N+](=O)[O-])ccc2Oc2ccccc21,1690 mg/kg
23,CC(C)(CNc1ccc(N=O)cc1)[N+](=O)[O-],2730 mg/kg
24,C1COCCO1,4200 mg/kg
25,CCCCCCCCCCCC[N+](CCO)(CCO)Cc1ccccc1,750 mg/kg
